# Measured values taken from US11091486B2, “Process for the preparation of pyrazolo[1,5-a]pyrimidines and salts thereof” (Array BioPharma Inc., priority 2016, dated 2021).
# Experiments:
# [1] = tested on: Cryopreserved human hepatocytes; test: In vitro metabolic stability in human hepatocytes (Example 34); format: in vitro ADME; details: 1 μM, predicted hepatic extraction ratio
# Protocol: (§1) In vitro metabolic stabilities were studied at a concentration of 1 μM in the presence of liver microsomes and isolated hepatocytes.
# A stock solution of the test compound was prepared at 10 mM (active compound) in DMSO. The in vitro stability of the test compound (1 μM) was assessed in the presence of hepatocytes as follows. Cryopreserved hepatocytes were thawed, isolated from shipping media and diluted to a density of 1×10^6 viable cells/mL, according to the supplier's guidelines, using Dulbecco's Modified Eagle Medium, 1×, high glucose (DMEM, Invitrogen, Carlsbad, Calif.). Viability was determined by trypan blue exclusion using a hemocytometer (3500 Hausser, VWR, West Chester, Pa.). […]
# (§2) Data were acquired and peak areas were calculated for test compounds and the internal standard using Analyst 1.6.1 software (Sciex). […]
# (§3) All calculations were performed using BioAssay Enterprise. The mean peak area ratios were calculated by averaging the peak area ratios (n=2) of test compound and the internal standard for each sample. Percent remaining was calculated by determining the ratio of the peak area ratio at each time point to the peak area ratio of the time-zero samples. The rate of loss of test compound (km) was determined by linear regression of—1n(f(t)) versus time. […] The t½ was determined dividing 1n(2) by km. […]
# [2] = In vitro metabolic stability in rat liver microsomes (Example 34); format: in vitro ADME, Sprague Dawley rat; details: 1 μM, predicted hepatic extraction ratio
# Protocol: as §1
# A 100 mM potassium phosphate assay buffer solution (KPB) was prepared as follows. Both KH2PO4 and K2HPO4 were dissolved separately in reagent grade water resulting in final concentrations 100 mM. A 75:25 mixture v/v of K2HPO4:KH2PO4 was prepared and the pH of the solution was adjusted to 7.4 using diluted HCl or diluted NaOH solutions. A stock solution of test compound was prepared at 10 mM (active compound) in DMSO. The stock solution was diluted immediately before use to 2.5 μM using the KPB solution to create the working standard. All test compounds were completely soluble in DMSO by visual inspection at room temperature. […]
# as §2, §3
SMILES,Human Hepatocyte Clearance (% ER) [1] [% ER],Rat Microsome Clearance (% ER) [2] [% ER]
C[C@@H]1CCc2ncc(F)cc2[C@H]2CCCN2c2ccn3ncc(c3n2)C(=O)N1 [Formula I],48,51
C[C@H]1CCc2ncc(F)cc2[C@H]2CCCN2c2ccn3ncc(c3n2)C(=O)N1 [formula I′],74,77
